Patent US20120114706A1, “Endorphin Therapy Compositions and Methods of Use Thereof” (priority 2008, published 2012)
Entries after “also recorded” stand apart in the source; their conditions may differ.

Assays:
MADB106 cells = assay: Pharmacologic modification of autonomic influence on immune system and lung metastasis; format: in vivo, rat; conditions: for PBMC NK cell activity / macrophage migration activity: 24 hours after MADB106 inoculation, naloxone 10, MP/MET 0.8, MLA 2.5 mg/kg or saline; for effect on β-EP elimination of tumor cell lung retention: β-EP transplanted Fischer rats, naloxone 10, MP/MET 0.8, MLA 2.5 mg/kg for 8 days
Procedure: 48 β-EP implanted (SC) male Fischer rats and 48 control (C) male Fischer rats were divided into 8 groups, treated with saline, Naloxone (10 mg/kg body weight), Metaproterenol (MP, 0.8 mg/kg body weight), or Methyllycaconitine (MLA, 2.5 mg/kg body weight), respectively. Animals were treated with drugs for 8 days. In the second day of drug injection, animals were inoculated with MADB106 cells (100,000/0.2 ml/rat). 24 hours after tumor cell inoculation, blood was collected by orbital puncture. Plasma was collected, and PBMCs were separated for migration assay and NK cytolytic assay. 7 days after tumor inoculation, blood was taken again by orbital puncture. Plasma was collected, and PBMCs were separated for migration assay and T cell cytolytic assay. After 6 weeks, animals were sacrificed, and brains, spleens and blood were frozen. Lungs were fixed in formalin and processed to H&E staining. […] However, 7 days after tumor inoculation, there isn't a clear pattern of T cell cytolytic activity and macrophage migration activity between groups (FIGS. 30B and 30D).
It was hypothesized that the beneficial effect of BEP neuron transplants on immune function is regulated through autonomic nervous system, and that central BEP modulate peripheral immune function by inhibiting the sympathetic activity and activating the parasympathetic activity. Metaproterenol (MET) is an agonist for β-receptors, which are a class of G protein-coupled receptors that are targets of the catecholamines, especially norepinephrine and epinephrine (Dokur et al. (2004) J Neuroimmunol 5:148-57; Page et al. (2008) J Neuroimmunol 193:113-9). Methyllycaconitine (MLA) is a selective antagonist of α7 nicotine acetylcholine receptor (α7 nAChR; Wu et al. (2011) Clin Cancer Res 17:3533-41). By injecting MET and MLA i.p., the stimulation of sympathetic nerves and inhibition of parasympathetic nerves was mimicked. Naloxone, an opiate receptor antagonist, was used to test whether BEP neuronal effects is acted via opiodergic receptor (Boyadjieva et al. (2006) Alcohol Clin Exp Res 30:1761-7). Forty-eight BEP neuron-transplanted Fischer rats and 48 control rats were divided into 8 groups and treated with saline, naloxone (10 mg/kg body weight), MET (0.8 mg/kg body weight), or MLA (2.5 mg/kg body weight) for 8 days (the doses used for these drugs are recognized as effective biological doses). A day after the first injection of these agents, animals were inoculated with MADB106 cells (100,000/0.2 mL/rat). Twenty-four hours after tumor cell inoculation, blood was collected by orbital puncture. Plasma was collected, and peripheral blood mononuclear cells (PBMC) were separated for migration assay and NK cytolytic assay. These animals continued receiving the blocker treatments for 7 days. After 4 weeks they were sacrificed, their lungs were fixed in formalin and processed to H&E staining for determination of cancer pathology. Brain tissues were processed for verification of the site and viability of BEP cell transplantation.

[1] = test system: differentiated BEP neurons; assay: PGE1-induced BEP release and POMC expression of differentiated neurons; format: cell-based, rat; conditions: PGE1 10 μM
Procedure: Enriched hypothalamic neurons were maintained in HDMEM, containing 10% FBS, for 3 weeks. Each week, cells were trypsinized and cultured. By the beginning of the third week, many spheres started to develop. These spheres were separated and dissociated into single cells by using trypsin/EDTA (Sigma) solution. They were then cultured in suspension or in poly-L-ornithine-coated 24-well plates (20,000 cells/well) in stem cell medium (DME F-12, […] (LIF), 0.1 μg/ml; L-glutamine, 10 mM; rat bFGF, 20 ng/ml; Mem amino acids solution, MAA, 0.5%; all of the chemicals were from Sigma except that bFGF was obtained from R&D Systems, Minneapolis, Minn.). Cells were cultured for 2 weeks, during which they grew and developed secondary spheres. Some of these cultures were used for immunocytochemical localization of nestin staining to determine whether they were neurospheres. These neurospheres were maintained in cultures for several months by regularly changing the medium and by splitting cells. The secondary spheres were re-suspended and cultured in poly-L-ornithine-coated 24-well plates (20,000/well; for physiological studies) or in poly-L-ornithine-coated 8-well permanox slides (1000 cells/slide; NaIg Nunc International Corp., IL; for histochemical studies). The differentiation experiments were performed by treating these cells for 1 week with PACAP (1-10 μM; SynPep) and dbcAMP (1-10 μM; Sigma) or a combination of both, and then in defined cell culture medium without the drugs for 1 week. At day 3, day 7 and day 14 the immunocytochemical, biochemical and/or real-time RT-PCR analyses were performed.
The immunoreactive β-endorphin levels in culture medium samples were measured by a radioimmunoassay system (De et al. (1994) J. Biol. Chem., 269:26697-26705). All the samples were dried and reconstituted in assay buffer and measured in duplicate in a single assay. The minimum amount of β-endorphin detectable was 3 pg/tube.
Expression levels of POMC mRNA in NSCs and differentiated cells were measured by a quantitative real-time RT-PCR (TaqMan assay) on an ABI PRISM 7700 Sequence Detector (PerkinElmer Applied Biosystems, Foster City, Calif.) as described previously (Chen et al. (2004) J. Neurochem., 88:1547-1554). […] The expression of POMC mRNA was detected using a POMC gene-specific primer pair and probe (TaqMan Gene Expression Assay, Rn00595020_ml; Applied Biosystems; Foster City, Calif.). […] The relative quantity of mRNA was calculated by relating the PCR threshold cycle obtained from the tested samples to relative standard curves degenerated from a serial dilution of cDNA prepared from the total RNA. The POMC mRNA level in each sample was normalized with the level of GAPDH mRNA which was measured by a control reagent (PerkinElmer Applied Biosystems). […]

[2] = test system: rat hypothalamic neuronal stem cells (NSCs); assay: Differentiation of hypothalamic neuronal stem cells to BEP neurons in culture; format: cell-based; conditions: agent alone, 0.1-10 μM
Procedure: Fetal brains were obtained from 17-day-old pregnant rats (Simonsen laboratories; Gilroy, […].). Mediobasal hypothalamic tissues from these rats were dissected out and cells from these tissues were dissociated, and mixed hypothalamic cell cultures were prepared as previously described (De et al. (1994) J. Biol. Chem., 269:26697-26705). Neurons were separated from glial cells by filtering mixed hypothalamic cells through a 48-μM nylon mesh. Then hypothalamic cells were sedimented at 400 g for 10 minutes; pellets were re-suspended in HEPES-buffered Dulbecco's Modified Eagle's Medium (HDMEM, 4.5 g/l glucose; Sigma, St. Louis, Mo.); and cells were cultured into poly-ornithine coated 25-cm^2 tissue culture flasks (2.5 million cells/flask) in HDMEM-containing 10% fetal bovine serum (FBS) and 1% penicillin/streptomycin. On day 2, the culture medium was replaced with HDMEM containing 10% FBS, 33.6 μg/ml uridine and 13.6 μg/ml 5-fluodeoxyuridine to prevent the overgrowth of astroglial cells. All of these chemicals were obtained from Sigma. On day 3, the culture medium was replaced with HDMEM-containing serum supplement (30 nM selenium, 20 nM progesterone, 1 μM iron-free human transferrin, 5 μM insulin, and 100 μM putrescin) and 1% penicillin/streptomycin. […] By this time, these cultures were approximately 85-90% neurons, as determined by MAP-2 positivity. […]

Molecule	PBMC NK cell activity (MADB106 cells)	macrophage migration activity (MADB106 cells)	effect on β-EP elimination of tumor cell lung retention (MADB106 cells)	effect on neurosphere differentiation [2]	further results
CCN1C[C@]2(COC(=O)c3ccccc3N3C(=O)C[C@H](C)C3=O)CC[C@H](OC)[C@@]34[C@@H]5C[C@H]6[C@H](OC)[C@@H]5[C@](O)(C[C@@H]6OC)[C@@](O)([C@@H](OC)[C@H]23)[C@@H]14 [MLA, Methyllycaconitine]	reversed the effect of β-EP; also recorded: moderate or strong inhibitory effect	reversed the effect of β-EP; also recorded: moderate or strong inhibitory effect	stopped the effect of β-EP; also recorded: prevented, at various degrees		
CC(C)NCC(O)c1cc(O)cc(O)c1 (stereo not drawn) [MP, Metaproterenol]	reversed the effect of β-EP	reversed the effect of β-EP	stopped the effect of β-EP		PBMC NK cell activity (MADB106 cells; listed as MET): moderate or strong inhibitory effect; macrophage migration activity (MADB106 cells; listed as MET): moderate or strong inhibitory effect; effect on β-EP elimination of tumor cell lung retention (MADB106 cells; listed as MET): prevented, at various degrees
CCCCC[C@H](O)/C=C/[C@H]1[C@H](O)CC(=O)[C@@H]1CCCCCCC(=O)O [PGE1, prostaglandin E1]					BEP release ([1]; cells at 1 week): only moderately enhanced; POMC expression ([1]; cells at 1 week): no effect; BEP-release response ([1]; cells at 2 weeks): significantly increased; POMC-expression response ([1]; cells at 2 weeks): significantly increased
CCCC(=O)Nc1ncnc2c1ncn2[C@@H]1O[C@@H]2COP(=O)(O)O[C@H]2[C@H]1OC(=O)CCC [dbcAMP, dibutyryl cAMP]				moderate effect	
pituitary adenylate cyclase-activating peptide [PACAP]				moderate effect	
